According to patent US6943194B1, “Synthesis of phenstatin and prodrugs thereof” (Arizona Board of Regents, acting for and on behalf of …, priority 1998, dated 2005):
Where two headings read alike, the source gives them in different places.

How the values were obtained:
tubulin = test: Inhibition of [3H]colchicine binding to tubulin; design: species or system bovine; settings: for Inhibition of colchicine binding % inhibition: 1.0 μM tubulin, 5.0 μM [3H]colchicine, 5.0 μM inhibitor, 10 min at 37° C.
Method: Reaction mixtures contained 0.1 mg/mL (1.0 μM) tubulin, 5.0 μM [3H]colchicine, and 5.0 μM inhibitor and were incubated for 10 min at 37° C.

[1] = system: NCI 60 Cell-Line Human Tumor Screen; test: NCI 60 cell-line human tumor screen; type: cell-based; settings: read-out: Mean Panel GI50 (±S.D)
Excerpt: (§1) Compounds 3b, 3d, 1d, and 4a-f were comparatively evaluated in the NCI 60 cell-line human tumor screen (Boyd, Status of the NCI preclinical antitumor drug discovery screen. Implications for selection of new agents for clinical trial, CANCER: Principles and Practices of Oncology Updates, DeVita, et al. (Eds.), Lippincott: Philadelphia, 1989; Vol. 10, No. 3, pp. 1-12; Boyd, The Future of New Drug Development. Section I. Introduction to Cancer Therapy, Current Therapy in Oncology, Niederhuber, (Ed.), B. C. Decker, Inc.: Philadelphia, 1993; pp. 11-22; Boyd, et al., Data display and analysis strategies from NCI disease-oriented in vitro antitumor drug screen. In Cytotoxic Anticancer Drugs: Models and Concepts for Drug Discovery and Development, Valeriote, et al. (Eds.), Kluwer Academic Publishers: Amsterdam, 1992; pp. 11-34; Stinson, et al., Morphological and Immunocytochemical Characteristics of Human Tumor Cell Lines for Use in a Disease-Oriented Anticancer Drug Screen, Anticancer Res. 1992, 12,-1035-1054; Boyd, et al., Some Practical Considerations and Applications of the NCI in vitro Drug Discovery Screen, Drug Dev. Res. 1995, 34, 91-109).

[2] = system: P388 Lymphocytic Leukemia Cell Line; test: Murine P388 lymphocytic leukemia cell line growth inhibition; type: cell-based
OVCAR-3 = test: Human cancer cell growth inhibition, ovarian OVCAR-3; type: cell-based
SF-295 = test: Human cancer cell growth inhibition, CNS SF-295; type: cell-based
A498 = test: Human cancer cell growth inhibition, renal A498; type: cell-based
NCI-H460 = test: Human cancer cell growth inhibition, lung-NSC NCI-H460; type: cell-based
KM20L2 = test: Human cancer cell growth inhibition, colon KM20L2; type: cell-based
SK-MEL-5 = test: Human cancer cell growth inhibition, melanoma SK-MEL-5; type: cell-based
bovine brain tubulin = test: Inhibition of tubulin polymerization; type: biochemical; settings: for IC50: 10 μM tubulin, extent of assembly after 20 min at 30° C., read-out: Inhibition of tubulin polymerization IC50, μM ± SD; for activity against tubulin / in inhibiting assembly (in words): purified tubulin
Method: Electrophoretically homogeneous bovine brain tubulin was purified from bovine brain as described previously (Hamel, et al., Separation of active tubulin and microtubule-associated proteins by ultracentrifugation and isolation of a component causing the formation of microtubule bundles, Biochemistry 1984, 23, 4173-4184). Reaction mixtures (0.24 mL during preincubation, 0.25 mL during incubation, with all concentrations referring to the final volume) contained 0.8 M monosodium glutamate (taken from 2.0 M stock solution adjusted to pH 6.6 with Hcl), 1.0 mg/mL (10 μM) tubulin, 4% (v/v) dimethyl sulfoxide, and varying concentrations of drug. Samples were incubated for 15 min at 30° C. and chilled on ice. GTP, required for polymerization, was added in 10 μL to a final concentration of 0.4 mM. Samples were transferred to cuvettes held at 0° C. by electronic temperature controllers in GILFORD model 250 recording spectrophotometers. Baselines were established, and the reaction was initiated by a jump (approximately 1 min) to 30° C. Extent of assembly after 20 min was the parameter used to determine IC50 values. […] In most experiments, four spectrophotometers were used, with two control reaction mixtures.

[3] = Solubility in distilled water; type: physicochemical; settings: distilled water at 25° C.
Method: The deprotected phosphate (0.44 g, 1.10 mmol) was dissolved in anhydrous methanol (15 mL) and sodium methoxide ([…], 2.20 mmol) was added at room temperature. The cloudy solution was stirred for 20 hours and the reaction mixture was concentrated to a white solid that was washed with 2-propanol and recrystallized (3×) from water-acetone. The phenstatin prodrug (3d, 0.38g, 78% yield) was collected by filtration and found to give; LRFAB m/z 443.02 (M+H+), calculated 443.048, EIMS m/z (peak height) 318 (100%, M+—PO3Na2+H), 303 (12%), 195 (20%), 151 (23%); ^1H-NMR (D2O) δH 7.644 (1H, t, J2/61.8 Hz, H-2), 7.366 (1H, dd, J6/2 1.8 Hz, J6/58.5 Hz, H-6), 7.006 (1H, d, J5/6 8.5 Hz, H-5), 6.933 (2H, s, H-2′, 6′), 3.844 (3H, s, 4′-OCH3), 3.748 (6H, s, 3′, 5′-OCH3) 3.734 (3H, s, 4OCH3); ^13C-NMR (D2O, reference to CDCl3) δC 193.5 (C═O), 151.1; and ^31P-NMR (D2O, decoupled, […]) δP −1.965.

CNS U251 = test: Human cancer cell line inhibition, CNS U251; type: cell-based; settings: U-251
Excerpt: as §1

pharynx FADU = test: Human cancer cell line inhibition, pharynx FADU; type: cell-based
Excerpt: as §1

prostate DU-145 = test: Human cancer cell line inhibition, prostate DU-145; type: cell-based
Excerpt: as §1

[4] = mean over NCI 60 cell-line panel, tested in triplicate
[5] = Homo sapiens, mean over NCI 60 cell-line panel, tested in triplicate

Compound	Inhibition of colchicine binding % inhibition (tubulin) [%]	IC50 (bovine brain tubulin) [µM]	activity against tubulin / in inhibiting assembly (in words) (bovine brain tubulin)	melting point [°C]	further results
COc1ccc(/C=C\c2cc(OC)c(OC)c(OC)c2)cc1O [Compound 1b, combretastatin A-4, reference compound]	97	–	–	–	–
COc1ccc(/C=C\c2cc(OC)c(OC)c(OC)c2)cc1OP(=O)([O-])[O-].[Na+].[Na+] [Compound 1d, combretastatin A4 sodium phosphate, reference compound]	4	> 80	totally inactive	–	GI50 [1, 4]: 0.0128 µM; GI50 [2]: 0.0004 µg/mL; GI50 (OVCAR-3): 0.023 µg/mL; GI50 (SF-295): 0.036 µg/mL; GI50 (A498): 0.041 µg/mL; GI50 (NCI-H460): 0.029 µg/mL; GI50 (KM20L2): 0.34 µg/mL; GI50 (SK-MEL-5): 0.041 µg/mL
COc1ccc(C=Cc2cc(OC)c(OC)c(OC)c2)cc1 [Compound 1e, reference compound]	97	1.3 ± 0.2	–	–	–
COc1ccc(C(=O)c2cc(OC)c(OC)c(OC)c2)cc1OP(=O)([O-])[O-].[Na+].[Na+] [Compound 3d, Disodium Phenstatin 3-O-phosphate]	37	21 ± 3	weak activity	–	GI50 [1, 4]: 0.0733 µM; GI50 [2]: <0.001 µg/mL; GI50 (OVCAR-3): 0.0025 µg/mL; GI50 (SF-295): 0.012 µg/mL; GI50 (A498): 0.05 µg/mL; GI50 (NCI-H460): 0.035 µg/mL; GI50 (KM20L2): 0.27 µg/mL; GI50 (SK-MEL-5): 0.0047 µg/mL; activity as an inhibitor of colchicine binding (in words) (tubulin): moderate activity; activity relative to phenstatin in colchicine binding assay (tubulin; relative to phenstatin 3b): about 40%; solubility [3]: 30 mg/mL
COc1ccc(C(=O)c2cc(OC)c(OC)c(OC)c2)cc1OC(C)=O [Compound 3e, Phenstatin Acetate]	71	3.5 ± 0.5	–	164 to 165	GI50 (CNS U251): 0.0039 µg/mL; G50 (pharynx FADU): 0.0055 µg/mL; GI50 (prostate DU-145): 0.0029 µg/mL
COc1cc(C(=O)c2ccc3c(c2)OCO3)cc(OC)c1OC [Compound 4a, 3,4,5-trimethoxy-3′,4′-methylenedioxybenzophenone]	0	15 ± 2	only weak activity	124 to 125	GI50 [1, 5]: 2.7 µM
COc1cc(C(=O)c2cc(C)cc(C)c2)cc(OC)c1OC [Compound 4b, 3,4,5-trimethoxy-3′,5′-dimethylbenzophenone]	7	11 ± 2	–	104 to 105	GI50 [1, 5]: 3.48 µM; further fold drop in activity against tubulin (bovine brain tubulin; relative to 4d): 3 fold
COc1ccc(C(=O)c2cc(OC)c(OC)c(OC)c2)cc1OC [Compound 4c, 3,3′,4,4′,5-pentamethoxybenzophenone]	1	15 ± 2	–	–	GI50 [1, 5]: 5.11 µM
COc1cc(OC)cc(C(=O)c2cc(OC)c(OC)c(OC)c2)c1 [Compound 4d, 3,3′,4,5,5′-pentamethoxybenzophenone]	58	3.6 ± 0.8	–	121 to 122	GI50 ([1]; Homo sapiens): 0.543 µM; fold less potent than phenstatin in inhibiting tubulin polymerization (bovine brain tubulin; relative to phenstatin 3b): 3-4 fold
COc1cc(C(=O)c2cc(Cl)cc(Cl)c2)cc(OC)c1OC [Compound 4e, 3,5-dichloro-3′,4′,5′-trimethoxybenzophenone]	–	–	almost inert	131 to 132	GI50 [1, 5]: 5.12 µM
COc1cc(C(=O)c2cc(F)cc(F)c2)cc(OC)c1OC [Compound 4f, 3,5-difluoro-3′,4′,5′-trimethoxybenzophenone]	0	39 ± 7	almost inert	121 to 123	GI50 ([1]; Homo sapiens): 4.94 µM
COc1ccc(Cc2cc(OC)c(OC)c(OC)c2)cc1O [Compound 7a, reference compound]	65	3.3 ± 0.5	–	–	–
COc1ccc(Cc2cc(OC)c(OC)c(OC)c2)cc1 [Compound 7b, reference compound]	56	4.4 ± 0.2	–	–	–
COc1ccc(CCc2cc(OC)c(OC)c(OC)c2)cc1O [Compound 8a, reference compound]	77	2.1 ± 0.3	–	–	–
COc1ccc(CCc2cc(OC)c(OC)c(OC)c2)cc1 [Compound 8b, reference compound]	54	3.2 ± 0.3	–	–	–
